Laboratory results: patent US10760110B2, “Antibiotic testing and screening system” (priority 2017, dated 2020)
Read-outs that look alike come from different tables or passages of the source.

Assays:
[1] = test system: K. pneumoniae NVT1001 and its ΔompK35/36 and/or ΔramR mutants; assay: Etest MIC, OmpK35/36 loss and AcrAB-TolC overexpression (ΔramR) strains (Table 6); assay type: cell-based, Klebsiella pneumoniae; details: Klebsiella pneumoniae
In short: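 Etest MICs against K. pneumoniae NVT1001 and its ΔompK35/36 and/or ΔramR mutants, rounded up to the next two-fold value. For NVT1001 carrying pACYC177-blaOXA-48, ceftazidime and cefotaxime MICs by CLSI broth microdilution, interpreted with CLSI 2017 breakpoints.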

[2] = test system: K. pneumoniae NVT1001 strains with carbapenemase plasmids; assay: Etest MIC of β-lactams, OmpK35/36 loss, ΔramR and/or carbapenemase (Table 9); assay type: cell-based, Klebsiella pneumoniae; details: for MIC: Klebsiella pneumoniae
Procedure: DNA fragments of the resistance genes along with their flanking regions were amplified from clinical plasmids via PCR with specific primer pairs. The resulting PCR fragments were digested and then cloned into the plasmid pACYC177 or pACYC184. The resulting plasmids were then transformed into K. pneumoniae strain NVT1001 via electroporation. The recombinant bacteria were plated onto LB agar plates containing kanamycin (50 mg/L) or chloramphenicol (50 mg/L), and the presence of the cloned gene was confirmed via PCR and DNA sequencing.
The MICs of antibiotics were determined using the Etest (Biodisk AB, Sweden) according to the manufacturer's instructions. The MICs from the Etest, which fall between standard two-fold dilutions, were rounded up to the next highest two-fold value. The MICs of ceftazidime and cefotaxime against K. pneumoniae NVT1001 harbouring the pACYC177 plasmid with blaOXA-48 were further determined using a broth microdilution test according to the recommendations of the CLSI,^25 and the results were interpreted according to the breakpoints established by the CLSI in 2017.^25 Meanwhile, due to the lack of CLSI breakpoints in 2016 and 2017, the results for cephalothin were interpreted according to the breakpoints established by the CLSI in 2015,^26 and the results for moxifloxacin were interpreted according to the breakpoints established by the EUCAST in 2017.^27

[3] = test system: K. pneumoniae NVT1001 ΔramRΔompK35/36 mutant and its revertants; assay: Etest MIC, ΔramRΔompK35/36 mutant and its revertants (Table 7); assay type: cell-based; details: Klebsiella pneumoniae
[4] = ΔramRΔ35/36, ΔramRΔompK35/36 mutant
[5] = IMP-8 on pACYC177, WT (NVT1001), read-out: MIC
[6] = IMP-8 on pACYC177, Δ35 (ΔompK35 mutant)
[7] = IMP-8 on pACYC177, Δ35/36 (ΔompK35/36 mutant)
[8] = IMP-8 on pACYC177, Δ36 (ΔompK36 mutant)
[9] = IMP-8 on pACYC177, ΔramR mutant
[10] = IMP-8 on pACYC177, ΔramRΔ35 (ΔramRΔompK35 mutant)
[11] = IMP-8 on pACYC177, ΔramRΔ35/36 (ΔramRΔompK35/36 mutant)
[12] = IMP-8 on pACYC177, ΔramRΔ36 (ΔramRΔompK36 mutant)
[13] = KPC-2 on pACYC177, WT (NVT1001), read-out: MIC
[14] = KPC-2 on pACYC177, Δ35 (ΔompK35 mutant)
[15] = KPC-2 on pACYC177, Δ35/36 (ΔompK35/36 mutant)
[16] = KPC-2 on pACYC177, Δ36 (ΔompK36 mutant)
[17] = KPC-2 on pACYC177, ΔramR mutant
[18] = KPC-2 on pACYC177, ΔramRΔ35 (ΔramRΔompK35 mutant)
[19] = KPC-2 on pACYC177, ΔramRΔ35/36 (ΔramRΔompK35/36 mutant)
[20] = KPC-2 on pACYC177, ΔramRΔ36 (ΔramRΔompK36 mutant)
[21] = KPC-3 on pACYC177, WT (NVT1001), read-out: MIC
[22] = KPC-3 on pACYC177, Δ35 (ΔompK35 mutant)
[23] = KPC-3 on pACYC177, Δ35/36 (ΔompK35/36 mutant)
[24] = KPC-3 on pACYC177, Δ36 (ΔompK36 mutant)
[25] = KPC-3 on pACYC177, ΔramR mutant
[26] = KPC-3 on pACYC177, ΔramRΔ35 (ΔramRΔompK35 mutant)
[27] = KPC-3 on pACYC177, ΔramRΔ35/36 (ΔramRΔompK35/36 mutant)
[28] = KPC-3 on pACYC177, ΔramRΔ36 (ΔramRΔompK36 mutant)
[29] = NDM-1 on pACYC177, WT (NVT1001), read-out: MIC
[30] = NDM-1 on pACYC177, Δ35 (ΔompK35 mutant)
[31] = NDM-1 on pACYC177, Δ35/36 (ΔompK35/36 mutant)
[32] = NDM-1 on pACYC177, Δ36 (ΔompK36 mutant)
[33] = NDM-1 on pACYC177, ΔramR mutant
[34] = NDM-1 on pACYC177, ΔramRΔ35 (ΔramRΔompK35 mutant)
[35] = NDM-1 on pACYC177, ΔramRΔ35/36 (ΔramRΔompK35/36 mutant)
[36] = NDM-1 on pACYC177, ΔramRΔ36 (ΔramRΔompK36 mutant)
[37] = OXA-48 on pACYC177, WT (NVT1001), read-out: MIC
[38] = OXA-48 on pACYC177, Δ35 (ΔompK35 mutant)
[39] = OXA-48 on pACYC177, Δ35/36 (ΔompK35/36 mutant)
[40] = OXA-48 on pACYC177, Δ36 (ΔompK36 mutant)
[41] = OXA-48 on pACYC177, ΔramR mutant
[42] = OXA-48 on pACYC177, ΔramRΔ35 (ΔramRΔompK35 mutant)
[43] = OXA-48 on pACYC177, ΔramRΔ35/36 (ΔramRΔompK35/36 mutant)
[44] = OXA-48 on pACYC177, ΔramRΔ36 (ΔramRΔompK36 mutant)
[45] = VIM-1 on pACYC177, WT (NVT1001), read-out: MIC
[46] = VIM-1 on pACYC177, Δ35 (ΔompK35 mutant)
[47] = VIM-1 on pACYC177, Δ35/36 (ΔompK35/36 mutant)
[48] = VIM-1 on pACYC177, Δ36 (ΔompK36 mutant)
[49] = VIM-1 on pACYC177, ΔramR mutant
[50] = VIM-1 on pACYC177, ΔramRΔ35 (ΔramRΔompK35 mutant)
[51] = VIM-1 on pACYC177, ΔramRΔ35/36 (ΔramRΔompK35/36 mutant)
[52] = VIM-1 on pACYC177, ΔramRΔ36 (ΔramRΔompK36 mutant)
[53] = no supplemental plasmid, WT (NVT1001), read-out: MIC
[54] = no supplemental plasmid, Δ35 (ΔompK35 mutant)
[55] = no supplemental plasmid, Δ35/36 (ΔompK35/36 mutant)
[56] = no supplemental plasmid, Δ36 (ΔompK36 mutant)
[57] = no supplemental plasmid, ΔramR mutant
[58] = no supplemental plasmid, ΔramRΔ35 (ΔramRΔompK35 mutant)
[59] = no supplemental plasmid, ΔramRΔ35/36 (ΔramRΔompK35/36 mutant)
[60] = no supplemental plasmid, ΔramRΔ36 (ΔramRΔompK36 mutant)
[61] = ΔramRΔompK35/36::ompK35/36 revertant
[62] = ΔramRΔompK35/36::ompK35 revertant
[63] = ΔramRΔompK35/36::ompK36 revertant
[64] = ΔramRΔompK35/36::ramR revertant
[65] = ΔramRΔompK35/36::ramR::ompK35/36 revertant
[66] = ΔramRΔompK35/36::ramR::ompK35 revertant
[67] = ΔramRΔompK35/36::ramR::ompK36 revertant

C[C@H]1[C@H](NC(=O)/C(=N\OC(C)(C)C(=O)O)c2csc(N)n2)C(=O)N1S(=O)(=O)O [Aztreonam]
0.25 µg/mL: MIC ([1]; Δ35, ΔompK35 mutant) | MIC [2, 6] | MIC [2, 30] | MIC [2, 38] | MIC [2, 46] | MIC [2, 54] | MIC [3, 67]
0.06 µg/mL: MIC ([1]; Δ36, ΔompK36 mutant) | MIC [2, 5] | MIC [2, 8] | MIC [2, 29] | MIC [2, 32] | MIC [2, 37] | MIC [2, 45] | MIC [2, 48] | MIC [2, 56] | MIC [3, 66]
0.5 µg/mL: MIC ([1]; Δ35/36, ΔompK35/36 mutant) | MIC ([1]; ΔramR mutant) | MIC ([1]; ΔramRΔ35, ΔramRΔompK35 mutant) | MIC [2, 7] | MIC [2, 9] | MIC [2, 10] | MIC [2, 11] | MIC [2, 12] | MIC [2, 31] | MIC [2, 33] | MIC [2, 34] | MIC [2, 35] | MIC [2, 36] | MIC [2, 39] | MIC [2, 41] | MIC [2, 42] | MIC [2, 43] | MIC [2, 44] | MIC [2, 47] | MIC [2, 49] | MIC [2, 50] | MIC [2, 55] | MIC [2, 57] | MIC [2, 58] | MIC [3, 61] | MIC [3, 63] | MIC [3, 64]
0.125 µg/mL: MIC [2, 40]
1 µg/mL: MIC [1, 4] | MIC ([1]; ΔramRΔ36, ΔramRΔompK36 mutant) | MIC [2, 51] | MIC [2, 52] | MIC [2, 59] | MIC [2, 60] | MIC [3, 62] | MIC ([3]; ΔramRΔompK35/36 mutant)
256 µg/mL: MIC [2, 16]
susceptible: susceptibility category ([2]; IMP-8, NDM-1, VIM-1 and OXA-48 strains, with or without OmpK35/36 loss and/or ΔramR)
> 256 µg/mL: MIC [2, 13] | MIC [2, 14] | MIC [2, 15] | MIC [2, 17] | MIC [2, 18] | MIC [2, 19] | MIC [2, 20] | MIC [2, 21] | MIC [2, 22] | MIC [2, 23] | MIC [2, 24] | MIC [2, 25] | MIC [2, 26] | MIC [2, 27] | MIC [2, 28]
0.03 µg/mL: MIC ([1]; WT, NVT1001, read-out: MIC) | MIC [2, 53] | MIC [3, 65]

C[C@@H](O)[C@H]1C(=O)N2C(C(=O)O)=C(SCCN=CN)C[C@H]12 [Imipenem]
> 32 µg/mL: MIC [2, 7] | MIC [2, 11] | MIC [2, 12] | MIC [2, 13] | MIC [2, 14] | MIC [2, 15] | MIC [2, 16] | MIC [2, 17] | MIC [2, 18] | MIC [2, 19] | MIC [2, 20] | MIC [2, 22] | MIC [2, 23] | MIC [2, 24] | MIC [2, 27] | MIC [2, 28] | MIC [2, 29] | MIC [2, 30] | MIC [2, 31] | MIC [2, 32] | MIC [2, 33] | MIC [2, 34] | MIC [2, 35] | MIC [2, 36] | MIC [2, 39] | MIC [2, 43] | MIC [2, 44] | MIC [2, 47] | MIC [2, 48] | MIC [2, 51] | MIC [2, 52]
4 µg/mL: MIC [2, 5] | MIC [2, 6] | MIC [2, 9] | MIC [2, 10] | MIC [2, 37] | MIC [2, 38] | MIC [2, 41] | MIC [2, 42]
8 µg/mL: MIC [2, 8] | MIC [2, 40]
16 µg/mL: MIC [2, 45] | MIC [2, 49] | MIC [2, 50]
32 µg/mL: MIC [2, 21] | MIC [2, 25] | MIC [2, 26] | MIC [2, 46]
0.25 µg/mL: MIC ([1]; ΔramR mutant) | MIC ([1]; ΔramRΔ35, ΔramRΔompK35 mutant) | MIC [2, 57] | MIC [2, 58] | MIC [3, 61] | MIC [3, 62] | MIC [3, 63] | MIC [3, 66] | MIC [3, 67]
0.5 µg/mL: MIC ([1]; WT, NVT1001, read-out: MIC) | MIC ([1]; Δ35, ΔompK35 mutant) | MIC ([1]; Δ35/36, ΔompK35/36 mutant) | MIC ([1]; Δ36, ΔompK36 mutant) | MIC [1, 4] | MIC ([1]; ΔramRΔ36, ΔramRΔompK36 mutant) | MIC [2, 53] | MIC [2, 54] | MIC [2, 55] | MIC [2, 56] | MIC [2, 59] | MIC [2, 60] | MIC [3, 64] | MIC [3, 65] | MIC ([3]; ΔramRΔompK35/36 mutant)
